“Also recorded” adds a separate entry of the source.
What was measured:
human melanoma cells = format: cell-based
[1] = test system: human colon carcinoma HT-29 cells; format: cell-based

C=C(C=O)C[C@@H]1C[C@H](O)[C@]2(C)O[C@@H]3C[C@@H]4O[C@@H]5C[C@]6(C)O[C@]7(C)CC[C@@H]8O[C@@H]9C[C@]%10(C)O[C@@H]%11C(C)=CC(=O)O[C@H]%11C[C@H]%10O[C@H]9C[C@@H](C)[C@H]8O[C@H]7C[C@H]6O[C@H]5C/C=C\[C@H]4O[C@H]3C[C@H]2O1 [brevetoxin]
response in the presence of ouabain and veratridine (human melanoma cells): does not respond; also recorded: lack of response | response in the presence of ouabain and veratridine [1]: lack of response
